Measurements published in patent US10051861B2, “N-arylamidine-substituted trifluoroethyl sulfide derivatives as acaricides and insecticides” (BAYER CROPSCIENCE AG, priority 2011, dated 2018).
Like-named read-outs stand apart in the source and are kept apart here. Marks after values point to notes of the source that are not given here.

What was measured:
[1] = test system: greenhouse red spider mite (Tetranychus urticae); test: Tetranychus urticae spray test, OP-resistant (TETRUR), bean leaf disks; type: in vivo; conditions: for pest or weed control at 500 g/ha: Tetranychus urticae, foliar, 144 h, read-out: efficacy (spider mites killed)
Description: (§1) After 6 days, the effect in % is determined.

[2] = test system: greenhouse red spider mite (Tetranychus urticae); test: Tetranychus test, OP-resistant (TETRUR spray treatment); type: in vivo; conditions: application rate 500 g/ha, after 6 days
Description: as §1

[3] = logP by HPLC on reversed-phase columns (C 18), EEC Directive 79/831 Annex V.A8; type: physicochemical; conditions: for logP(HCOOH): pH 2.7; for logP(neutral): pH 7.8; for chromatographic logP: reversed-phase C18 HPLC column
Description: Calibration is carried out using unbranched alkan-2-ones (having from 3 to 16 carbon atoms) with known log P values (the log P values are determined by the retention times using linear interpolation between two successive alkanones).

Meloidogyne incognita = Meloidogyne incognita test (MELGIN); type: in vivo; conditions: application rate 20 ppm, after 14 days
Description: Solvents: 80.0 parts by weight of acetone
Containers are filled with sand, solution of active compound, Meloidogyne incognita egg/larvae suspension and lettuce seeds. The lettuce seeds germinate and the plants develop. On the roots, galls are formed.
After 14 days, the nematicidal efficacy in % is determined by the formation of galls. 100% means that no galls have been found; 0% means that the number of galls on the treated plants corresponds to the untreated control.

[4] = test system: larvae of the mustard beetle (Phaedon cochleariae); test: Phaedon test (PHAECO spray treatment); conditions: application rate 500 g/ha, after 7 days
[5] = test system: cattle ticks (Boophilus microplus); test: Boophilus microplus injection test (BOOPMI Inj); type: in vivo; conditions: for pest or weed control at 0.02 mg: Rhipicephalus microplus, 168 h, read-out: efficacy (laying of fertile eggs)
Description: (§2) Solvent: dimethyl sulfoxide
1 μl of the active compound solution is injected into the abdomen of 5 engorged adult female cattle ticks (Boophilus microplus). The animals are transferred into dishes and kept in a climate-controlled room.
(§3) The activity is assessed after 7 days by laying of fertile eggs. Eggs whose fertility is not visible from the outside are stored in a climate-controlled cabinet until the larvae hatch after about 42 days. An efficacy of 100% means that none of the ticks has laid any fertile eggs; 0% means that all eggs are fertile.

[6] = test system: larvae of the mustard beetle (Phaedon cochleariae); test: Phaedon cochleariae spray test (PHAECO); conditions: for effect (beetle larvae killed): application rate 500 g/ha, after 7 days; for pest or weed control at 500 g/ha: Phaedon cochleariae, 168 h, read-out: effect (beetle larvae killed)
[7] = test system: L1 larvae of the Australian sheep blowfly (Lucilia cuprina); test: Lucilia cuprina test (LUCICU); type: in vivo; conditions: application rate 100 ppm, after 2 days
Description: as §2
About 20 L1 larvae of the Australian sheep blowfly (Lucilia cuprina) are transferred into a test vessel containing minced horsemeat and the active compound preparation of the desired concentration.
After 2 days, the kill in % is determined.

Lucilia cuprina larvae = test: Lucilia cuprina (48 h); type: in vivo; conditions: application rate 100 ppm, after 48 hours
Description: as §2
10 mg of active compound are dissolved in 0.5 ml of dimethyl sulfoxide. To prepare a suitable formulation, the active compound solution is diluted with water to the concentration desired in each case. About 20 Lucilia cuprina larvae are introduced into a test tube which contains about 1 cm^3 of horse meat and 0.5 ml of the preparation of active compound to be tested. After 48 hours, the efficacy of the active compound preparation is determined as % larvae mortality.

Boophilus microplus = Boophilus microplus test (BOOPMI injection); type: in vivo; design: dose or concentration left out as unconfirmed; conditions: after 7 days
Description: as §2
The solution of active compound is injected into the abdomen (Boophilus microplus), and the animals are transferred into dishes and kept in a climatized room. The activity is assessed by laying of fertile eggs.
100% means that none of the ticks has laid any fertile eggs.

[8] = test system: green peach aphid (Myzus persicae); test: Myzus persicae spray test (MYZUPE); type: in vivo; conditions: after 6 days
Description: as §1

[9] = test system: cattle ticks (Boophilus microplus) Parkhurst strain, SP-resistant; test: Boophilus microplus dip test (BOOPMI Dip); type: in vivo; conditions: application rate 100 ppm, after 7 days
Description: Test animals: cattle ticks (Boophilus microplus) Parkhurst strain, SP-resistant
as §2
10 mg of active compound are dissolved in 0.5 ml of dimethyl sulfoxide. To prepare a suitable formulation, the active compound solution is diluted with water to the concentration desired in each case.
This active compound preparation is pipetted into tubes. 8-10 adult engorged female cattle ticks (Boophilus microplus) are transferred into a further tube with holes. The tube is immersed into the active compound formulation, and all ticks are completely wetted. After the liquid has run out, the ticks are transferred on filter disks into plastic dishes and stored in a climate-controlled room.
as §3

[10] = test system: greenhouse red spider mite (Tetranychus urticae); test: Tetranychus urticae spray test, OP-resistant (TETRUR), bean plants; type: in vivo; conditions: after 7 days
Description: Solvents: 7 parts by weight of dimethylformamide
Emulsifier: 2 part by weight of alkylaryl polyglycol ether
If the addition of ammonium salts or/and penetrants is required, these are in each case added in a concentration of 1000 ppm to the solution of the preparation.
Bean plants (Phaseolus vulgaris) which are heavily infested by all stages of the greenhouse red spider mite (Tetranychus urticae) are treated by spraying with the active compound preparation of the desired concentration.

[11] = application rate 500 g/ha, after 6 days
[12] = application rate 20 μg/animal, injection, after 7 days

Row | SMILES | efficacy (spider mites killed) [1, 11] [%] | logP(HCOOH) [3] | logP(neutral) [3] | efficacy (beetle larvae killed) [4] [%] | efficacy (laying of fertile eggs) [5, 12] [%] | effect (beetle larvae killed) [6] [%] | pest or weed control at 500 g/ha [1, 11] [%] | effect (aphids killed) ([8]; application rate 500 g/ha) [%] | also measured
1 | Cc1cc(C)c(SCC(F)(F)F)cc1N=C(N)C(F)(F)F [Ia-07] | 100 | 3.36 | 3.4 | – | – | – | – | – | efficacy (spider mites killed) [2]: 100%; nematicidal efficacy (formation of galls) (Meloidogyne incognita): 90%
2 | CNC(=Nc1cc(SCC(F)(F)F)c(C)cc1F)C(F)(F)F [Ia-13] | 100 | 3.7 | 3.71 | 100 | 100 | 100 | – | – | efficacy (spider mites killed) [2]: 100%; efficacy (kill of larvae) [7]: 90%
3 | Cc1cc(F)c(N=C(N)C(F)(F)F)cc1SCC(F)(F)F [Ia-21] | 100 | – | 3.12^[b] | – | 100 | – | – | – | effect (% larvae mortality) (Lucilia cuprina larvae): 100%; efficacy (laying of fertile eggs) (Boophilus microplus): 100%; efficacy (kill of larvae) [7]: 100%
4 | Cc1cc(C)c(SCC(F)(F)F)cc1/N=C(\N)C1(Cl)CC1 [Ia-34] | – | – | – | – | – | – | 100 | 90 | pest or weed control at 0.02 mg [5, 12]: 100%
5 | Cc1cc(F)c(/N=C(/N)c2ccc(F)cc2)cc1SCC(F)(F)F [Ia-116] | – | – | – | – | – | – | 100 | 90 | pest or weed control at 0.02 mg [5, 12]: 100%
6 | Cc1cc(F)c(/N=C2\CCCN2CC(F)(F)F)cc1SCC(F)(F)F [Ia-189, 2-fluoro-4-methyl-N-[1-(2,2,2-trifluoroethyl)pyrrolidin-2-ylidene]-5-[(2,2,2-trifluoroethyl)sulfanyl]aniline] | – | – | – | – | – | – | – | – | pest or weed control at 0.02 mg [5]: 100%; efficacy (laying of fertile eggs) [9]: 100%; pest or weed control at 500 g/ha [1]: 100%; chromatographic logP ([3]; pH 2.7, [a] LC-MS, acidic range, pH 2.7, 0.1% aqueous formic acid/acetonitrile, read-out: logP(HCOOH)): 2.32; chromatographic logP ([3]; pH 7.8, [b] LC-MS, neutral range, pH 7.8, 0.001 molar aqueous ammonium bicarbonate/acetonitrile, read-out: logP(neutral)): 4.37
7 | Cc1cc(F)c(/N=C(\NC(C)C(F)(F)F)C2CC2)cc1SCC(F)(F)F (centres unmarked) [Ia-206] | – | – | – | – | – | – | 100 | 100 | pest or weed control at 0.02 mg [5, 12]: 100%
8 | Cc1cc(F)c(/N=C(\NCC2CCCC(C(F)(F)F)C2)C2CC2)cc1SCC(F)(F)F (centres unmarked) [Ia-228] | – | – | – | – | – | – | 90 | 100 | –
9 | CCNC(=Nc1cc([S+]([O-])CC(F)(F)F)c(C)cc1F)C(F)(F)F (centres unmarked) [Ib-02] | 100 | – | – | 100 | 100 | 100 | – | – | efficacy (spider mites killed) [2]: 100%; efficacy (kill of larvae) [7]: 80%; nematicidal efficacy (formation of galls) (Meloidogyne incognita): 100%
10 | CN/C(=N/c1ccc(C(F)(F)F)c([S+]([O-])CC(F)(F)F)c1)C(F)(F)F (centres unmarked) [Ib-10] | 100 | 2.52 | 2.49 | 100 | 100 | 100 | – | – | efficacy (laying of fertile eggs) (Boophilus microplus): 100%
11 | Cc1cc(F)c(/N=C(/N)C(F)(F)F)cc1[S+]([O-])CC(F)(F)F (centres unmarked) [Ib-11] | 100 | 2.77 | 2.71 | 100 | 100 | 100 | – | – | effect (% larvae mortality) (Lucilia cuprina larvae): 100%; efficacy (laying of fertile eggs) (Boophilus microplus): 100%; efficacy (kill of larvae) [7]: 100%
12 | N/C(=N/c1cc([S+]([O-])CC(F)(F)F)c(Cl)cc1Cl)C(F)(F)F (centres unmarked) [Ib-14] | 100 | 2.05 | 2.02 | 100 | 100 | 100 | – | – | efficacy (laying of fertile eggs) (Boophilus microplus): 100%
13 | N/C(=N/c1ccc(C(F)(F)F)c([S+]([O-])CC(F)(F)F)c1)C(F)(F)F (centres unmarked) [Ib-16] | 100 | 2.2 | 2.19 | 100 | 100 | 100 | – | – | efficacy (laying of fertile eggs) (Boophilus microplus): 100%
14 | Cc1cc(F)c(/N=C2\CCCN2CC(F)F)cc1[S+]([O-])CC(F)(F)F (centres unmarked) [Ib-33] | – | – | – | – | – | – | 100 | – | pest or weed control at 0.02 mg [5, 12]: 100%; efficacy (laying of fertile eggs) [9]: 100%
15 | Cc1cc(F)c(/N=C(\N)C(F)(F)C(F)(F)F)cc1[S+]([O-])CC(F)(F)F (centres unmarked) [Ib-42] | – | – | – | – | – | – | 100 | – | effect (aphids killed) ([8]; application rate 100 g/ha): 80%
16 | N/C(=N/c1cc([S@@+]([O-])CC(F)(F)F)c(Cl)cc1Cl)C(F)(F)F [Ib-44] | – | – | – | – | – | – | – | 100 | pest or weed control at 0.02 mg [5, 12]: 90%; pest or weed control at 500 g/ha [6]: 100%; efficacy (spider mites killed) ([10]; application rate 100 ppm): 90%
17 | Cc1cc(F)c(/N=C2\CCCN2CC(F)(F)F)cc1[S+]([O-])CC(F)(F)F (centres unmarked) [Ib-115, 2-Fluoro-4-methyl-N-[1-(2,2,2-trifluoroethyl)pyrrolidin-2-ylidene]-5-[(2,2,2-trifluoroethyl)sulfinyl]aniline] | – | – | – | – | – | – | – | – | pest or weed control at 0.02 mg [5]: 100%; efficacy (laying of fertile eggs) [9]: 100%; pest or weed control at 500 g/ha [1]: 100%; pest or weed control at 500 g/ha [6]: 100%
18 | CN(C)/C(=N\c1cc([S+]([O-])CC(F)(F)F)c(Cl)cc1Cl)c1cccnc1 (centres unmarked) [Ib-123] | – | – | – | – | – | – | 100 | 90 | –
19 | Cc1cc(C)c([S+]([O-])CC(F)(F)F)cc1/N=C1\SCC(=O)N1C (centres unmarked) [Ib-159] | – | – | – | – | – | – | – | – | efficacy (spider mites killed) ([10]; application rate 20 ppm): 80%
20 | Cc1cc(F)c(/N=C2\SCC(=O)N2CC(F)(F)F)cc1[S@+]([O-])CC(F)(F)F [Ib-168] | – | – | – | – | – | – | – | – | efficacy (spider mites killed) ([10]; application rate 20 ppm): 100%
